Series [1] is described as follows: PMEApp accumulation in liver organ following oral administration to normal fasted rats. The format is in vivo, rat. The following applies: 30 mg/kg PMEA equivalents p.o. The procedure:
PMEA prodrugs were tested in vivo to identify prodrugs with suitable oral bioavailability and favorable intrahepatic activation rates.
Following oral administration of 30-mg/kg prodrug (PMEA equivalents) to normal, fasted rats, liver organ samples were freeze-clamped at 8 hr. […] The retention time of PMEApp was 18.6 minutes.

The subject of series [2] is freshly isolated rat hepatocytes. To be noted: 250 μM prodrug. The procedure: PMEA prodrugs were tested.
Hepatocytes were prepared from fed Sprague-Dawley rats (250–300 g) according to the procedure of Berry and Friend (Berry, M. N. Friend, D. S., J. Cell Biol. 43:506–520 (1969)) as modified by Groen (Groen, A. K. et al., Eur. J. Biochem 122:87–93 (1982)). Hepatocytes (60 mg/ml wet weight, >85% trypan blue viability) were incubated in 2 ml of krebs-bicarbonate buffer containing 20 mM glucose, and 1 mg/ml BSA for 4 hours in the presence of 250 μM PMEA prodrugs (from 25 mM stock solutions of prodrugs in methanol). At appropriate time points throughout the incubation (0, 1, 2, 4 hours), 400-μl aliquots of the cell suspension were taken and centrifuged through a silicon/mineral oil layer into 10% perchloric acid to extract intracellular nucleotides. The acidic cell extracts were neutralized with 0.3 volumes of 3M KOH/3M […] before evaluating PMEApp levels by ion exchange HPLC (Hewlett Packard 1050) using a Whatman Partisphere SAX (5 μm, 4.6×125 mm) column. Samples were loaded onto the column in 0.3M-ammonium phosphate buffer pH 3.5 and eluted from the column with a gradient to 0.8 M ammonium phosphate pH 3.5.

Series [3] has as its system liver microsomes isolated from rats induced with dexamethasone. The experiment in a line: In vitro activation of PMEA prodrug analogues to PMEA by rat liver microsomes. The procedure:
PMEA prodrug analogues were tested for activation to PMEA in reactions catalyzed by the microsomal fraction of rat liver.
Prodrugs (25 and 250 μM) were tested for activation by liver microsomes isolated from rats induced with dexamethasone to enhance CYP3A4 activity (Human Biologics Inc., Phoenix Ariz.). Reactions were conducted in 0.1 M KH2PO4, pH 7.4, in the presence of 2 mM NADPH and liver microsomes (1 mg/mL). Reaction mixtures were incubated for 5 minutes in an Eppendorf Thermomixer 5436 (37° C., speed 6). Reactions were terminated by the addition of 1.5 volumes of methanol. The resulting extracts were clarified by centrifugation at 14,000 rpm in an Eppendorf microfuge (20 minutes). The supernatants (200 μL) were evaporated under vacuum and heat to dryness before resuspending in 80 μL of buffer A (see below) for PMEA analysis. Spiked standards of 9-[2-(phosophonomethoxy)ethyl]adenine, (PMEA, lot 980397, Metabasis Therapeutics) were prepared in the same reaction mixture and processed in an identical fashion. After resuspension, samples were analyzed by reverse phase HPLC (Altima C-18 column) with use of an ion-pairing buffer (Buffer A) consisting of 10 mM ammonium phosphate, 2.5 mM octyltriethylammonium phosphate, pH 5.5. Samples were loaded in Buffer A and eluted with a methanol gradient from 40% to 80% over 20 minutes. Detection was at 265 nm.

For series [4] the following is noted: 30 mg/kg PMEA equivalents, in water, normal male rats.
Procedure: Compound 56 was solubilized in water for intravenous and oral administration. […] Liver organ concentrations of PMEApp were determined as indicated in Example I.
Series [5] is described as follows: Solubility and stability of the mesylate salt of Compound 54 in water. In kind it is physicochemical. The procedure: Ten Compound 54 salt forms (L-tartartric, succinic, maleic, L-malic, D-malic, citric, hydrochloric, phosphoric, nitric, methane-sulfonic acids) were evaluated to identify the best salt form to selectively crystallize out the cis-diastereomer from cis:trans mixtures following the prodrug coupling procedure. Solubility and stability of the mesylate salt of Compound 54 were analyzed in water.

Series [6] relates to human liver microsomes. The experiment in a line: Cis versus trans prodrug activation in human liver microsomes. The following applies: 100 μM prodrug, 2 mg/mL human liver microsomes; for Activation Rate: 5 minutes, 37° C. The format is in vitro ADME. From the text: The activation rates of cis (Compound 56, lot #20010093) and trans (9-{2-[2,4-trans-(S)-(+)-4-(3-chlorophenyl)-2-oxo-1,3,2-dioxaphosphorinan-2-yl]methoxyethyl} adenine, (lot 20010195) PMEA prodrugs was compared in order to establish which prodrug diastereomer is activated the most efficiently in human liver microsomes.
Human liver microsomes (mixed pool) were purchased from In Vitro Technologies (Lot RQX). […] Reactions were quenched with 60% methanol.

The conditions of series [7]: cited from earlier work.
The subject of series [8] is freshly isolated rat hepatocytes. The experiment in a line: PMEApp accumulation in rat hepatocytes following incubation with Compound 56 and PMEA (25 μM). In kind it is cell-based. To be noted: 0–4 h, rat hepatocytes 20 mg/ml. The procedure: Hepatocyte pellets were immediately sonicated in 300 μl of ice-cold acetonitrile followed by the addition of 200 μl of water. Hepatocyte extracts were centrifuged for 20 minutes in an Eppendorf centrifuge at 4° C. and supernatants from the extracts were transferred to a fresh tube. Hepatocyte extract supernatants were evaporated to dryness under vacuum and then resuspended in 200 μl of water. PMEApp concentrations were quantified by LC-MS/MS (negative-ion mode) based on authentic PMEApp standards spiked into hepatocyte extracts. Ten microliter samples were loaded onto a Phenomenex Luna […] C8 column (50×2 mm) in 20 mM N-N-dimethylhexylamine, 10 mM propionic acid and eluted with a gradient of methanol from 20–64% over 5.5 minutes. An API 2000 triple quadrupole mass spectrometer fitted with a pneumatically-assisted electrospray interface was used to quantify the negative ion (PO3^−) using a Multiple Reaction Monitoring (MRM) technique.

For series [9] the following is noted: cited from earlier work. The source holds these as a separate data set.
For series [10] the following is noted: oral administration, species not stated; cited from earlier work.
The conditions of series [11]: humans; i.v. dose; cited from earlier work.
Series [12] is described as follows: Tissue distribution of PMEA equivalents after oral tritiated Compound 4 and bis POM PMEA in rats. To be noted: p.o.
Procedure: Total tritium counts were analyzed in solubilized samples of liver organ, kidney, plasma, urine, red blood cells, small intestine, as well as small intestine contents and feces obtained at various time points over 24 hours. Liver organ specificity was assessed by comparison of the temporal profiles of total tritium in liver organ versus kidney, small intestine, plasma, and red blood cells. Metabolite profiles in perchloric acid extracts of liver organ, kidney, small intestine, feces and urine were analyzed by HPLC.
The conditions of series [13]: dog, after bis POM PMEA, Cundy et al. 1997; cited from earlier work.
The conditions of series [14]: cited from earlier work. This is another data set of the same source.
For series [15] the following is noted: 30 mg/kg PMEA equivalents p.o., rats. The procedure: Intact prodrug and the metabolite 9-[2-(phosophonomethoxy)ethyl]adenine (PMEA) and the respective mono-acids were measured in the plasma at 0 (predose), 0.33, 1, 3, 5, 8, and 12 hrs post dose by HPLC using fluorescence detection. The pharmacokinetic parameters were calculated based on noncompartmental analysis of the concentration-time profile.

The nature of series [16]: Plasma and urine PMEA following oral Compound 4 and bis POM PMEA in rats. To be noted: 30 mg/kg PMEA equivalents p.o. In kind it is in vivo, rat. The procedure: PMEA levels (0–12 h) were quantified in plasma by fluorescence HPLC following chloroacetaldehyde derivatization. PMEA levels in urine were quantified 48 hours after treatment.
Plasma drug levels: PMEA was determined in plasma by a modification of the procedure described in the literature (Shaw J P, Louie M S, Krishnamurthy V V, Arimilli M N, Jones R J, Bidgood A M, Lee W A, & Cundy K C, Drug Metabolism and Disposition, 25:362–366 (1997)). Plasma (100 μL) samples were extracted with 2 volumes of 0.1% TFA in acetonitrile. Following centrifugation to remove the precipitate, the supernatant was evaporated to dryness. The dried plasma was reconstituted with 200 μL of the derivatization cocktail consisting of 0.34% chloroacetaldehyde in 100 mM sodium acetate pH 4.5 and incubated at 95° C. for 40 min. The samples were evaporated to dryness and reconstituted with mobile phase for analysis by HPLC. The derivatized PMEA was analyzed by an HPLC system (Hewlett Packard 1090) consisting of a Beckman Ultrasphere ODS 4.6×150 mm (5 μm) column developed with a 20-min gradient of 0–30% acetonitrile in 20 mM potassium phosphate pH 6.2. Fluorescence was monitored at an excitation and emission wavelength of 240 and 420 nm, respectively. The column temperature was 40° C. and the flow rate was 1.5 mL/min. The derivatized PMEA was detected and quantified by comparison to an authentic standard prepared in plasma and eluted at approximately 6 minutes. The limit of quantitation of PMEA, was 0.25 μg/mL.
Urinary excretion studies: The percent excretion of PMEA in urine was assessed by a modification of a previously described procedure (Russell J W, Marrero D, Whiterock V J, & Klunk L J, J Chromatog, 572:321–326 (1991)). Aliquots (0.25–0.5 mL) of urine samples and spiked standards were incubated with an equal volume of 17% (v/v) of 50% chloroacetaldehyde in 100 mM sodium acetate pH 4.5 at 50° C. for 4 hrs. Following centrifugation, the supernatant was analyzed by the HPLC method described in the previous section.

For series [17] the following is noted: cited from earlier work. This is another data set of the same source.
Setting [18] is: 25 μM prodrug, 1 mg/mL microsomes, 2 mM NADPH, 5 minutes, 37° C., PMEA formation.
The mark [19] stands for this setting: 250 μM prodrug, 1 mg/mL microsomes, 2 mM NADPH, 5 minutes, 37° C., PMEA formation.

Like-named read-outs stand apart in the source and are kept apart here.

Regarding `Nc1ncnc2c1ncn2CCOCP1(=O)OCCC(c2ccccc2)O1` (mixture of isomers) [Compound 1], in [1], the “Rats, PMEApp levels in liver organ @ 8 hr., 30 mg/kg, p.o.” value (“Rats, PMEApp levels … p.o.” below) amounted to 0.6 nmol/g.

As to `Nc1ncnc2c1ncn2CCOCP1(=O)OCCC(c2ccncc2)O1` (mixture of isomers) [Compound 2], in series [2], the “Rat Hepatocytes, PMEApp formation, 250 μM, AUC 0–4 h” value was 106.8 nmol·h/g.

On to `Nc1ncnc2c1ncn2CCOCP1(=O)OCCC(c2cc(Cl)cc(Cl)c2)O1` (mixture of isomers) [Compound 3], for which, in series [3], the “Activation Rate, Dex. Rat Liver Microsomes, 25 μM” value (“Activation Rate … 25 μM” below) was 2.2 nmol/min/mg and the “Activation Rate, Dex. Rat Liver Microsomes, 250 μM” value (shortened to “Activation Rate … 250 μM”) is reported as 1.9 nmol/min/mg.

Take `Nc1ncnc2c1ncn2CCOCP1(=O)OCCC(c2ccc(Br)c(F)c2)O1` (mixture of isomers) [Compound 5]: the “Activation Rate … 25 μM” value in [3] (setting [18]) came out at 1.3 nmol/min/mg. The “Activation Rate … 250 μM” value in series [3] (setting [19]) is reported as 1.5 nmol/min/mg. The “Rats, PMEApp levels … p.o.” value in [1] was found to be 2.6 nmol/g.

With `Nc1ncnc2c1ncn2CCOCP1(=O)OCCC(c2cccc(Br)c2)O1` (mixture of isomers) [Compound 7], in series [1], the “Rats, PMEApp levels … p.o.” value is 2.2 nmol/g.

Take `Nc1ncnc2c1ncn2CCOCP1(=O)OCCC(c2cc(F)cc(F)c2)O1` (mixture of isomers) [Compound 10]: in series [1], the “Rats, PMEApp levels … p.o.” value worked out at 2.2 nmol/g.

For the compound `Cc1ccc(C2CCOP(=O)(COCCn3cnc4c(N)ncnc43)O2)cn1` (mixture of isomers) [Compound 18], the “Activation Rate … 25 μM” value in [3] (setting [18]) is listed as <0.5 nmol/min/mg. The “Activation Rate … 250 μM” value in series [3] (setting [19]) is on record as 0.6 nmol/min/mg.

`CS(=O)(=O)O.Nc1ncnc2c1ncn2CCOCP1(=O)OCC[C@@H](c2cccc(Cl)c2)O1` (stereo in doubt) [Compound 56, 9-{2-[2,4-cis-(S)-(+)-4-(3′-Chlorophenyl)-2-oxo-1,3,2-dioxaphosphorinan-2-yl]metboxyethyl}adenine Methanesulfonate]: the “OBAV (ratio of AUC of liver organ PMEApp oral vs i.v.)” value in series [4] came to 42%. Besides, the “Decomposition of dosing solutions” value in [5] (30 and 300 mg/ml in water, 5 days, room temperature) is given as < 10%. For the same compound, in series [5] (water), the Solubility in water was > 300 mg/mL. Moreover, the “Activation Rate” value in series [6] is 0.45 ± 0.01 nmol/mg/min.

For the compound `Nc1ncnc2c1ncn2CCOCP1(=O)OCC[C@@H](c2cccc(Cl)c2)O1` (stereo in doubt) [trans-, 9-{2-[2,4-trans-(S)-(+)-4-(3-chlorophenyl)-2-oxo-1,3,2-dioxaphosphorinan-2-yl]methoxyethyl} adenine], in series [6], the Activation (below measureable detection limit, text) was < 0.05 nmol/min/mg and the “Activation Rate” value is “≦0.05 nmol/mg/min”.

On to `Nc1ncnc2c1ncn2CCOCP1(=O)OCCC(c2ccccc2Br)O1` (centres unmarked) [Compound 6], for which the “Rats, PMEApp levels … p.o.” value in [1] was 7.1 nmol/g.

As to `Nc1ncnc2c1ncn2CCOCP(=O)(O)O` [PMEA, 9-(2-phosphonylmethoxyethyl)adenine], the “Oral bioavailability in monkeys” value in [7] is listed as < 1%. Moreover, the AUC0-4h PMEApp levels in hepatocytes in series [8] stood at 84 nmol·h/g. Further, the “Oral bioavailability in humans” value in series [9] is < 12%. Moreover, in series [10], the Oral bioavailability is listed as < 10%. For the same compound, in series [11], the “Dose excreted renally / renally cleared” value is on record as 98%.

With `CC(C)(C)C(=O)OCOP(=O)(COCCn1cnc2c(N)ncnc21)OCOC(=O)C(C)(C)C` [bis POM PMEA], the “Dose excreted in feces in the form of PMEA” value in series [12] came out at 43%. For the same compound, in series [13], the “PMEA AUC (dose-normalized plasma), literature” value is 10.9. The “Oral bioavailability in monkeys” value in series [7] was 25%. For the same compound, in [9], the “Oral bioavailability in humans” value is reported as 41%. Besides, the “Oral bioavailability in rats” value in series [14] is 38%. Besides, in series [15], the “Intact prodrug in plasma” value was “not detected”. Besides, in [16] (fasted rats), the “AUC0-12h of PMEA in plasma” value stood at 21.3 µM·h. The “Urinary levels of PMEA” value in [16] (rats, urine 48 hours after treatment) was 20.6 % dose. Besides, the “Half-life in human serum” value in series [17] is < 5 min.

The values are drawn from US7214668B2, “Phosphonic acid based prodrugs of PMEA and its analogues” (Metabasis Therapeutics, Inc., priority 2002, dated 2007).
